Where two headings read alike, the source gives them in different places.
How the values were obtained:
[1] = Noncompartmental pharmacokinetic analysis of plasma concentrations after single oral dose of artefenomel and DSM265 in combination; format: in vivo, human; details: for Cmax / AUC(0-t) / AUC(0-inf) / Vd/F / Tmax / half-life: human, plasma
Protocol: Plasma samples were analyzed by liquid chromatography-tandem mass spectrometry (HPLC-MS/MS) as previously described ([2], [4]). The PK parameters determined using noncompartmental analysis were the maximum plasma concentration (Cmax), the time point when Cmax was reached (tmax), the area under the concentration-time curve up to last time point measure (AUC0–last), the area under the concentration-time curve extrapolated to infinity (AUC0–∞), the elimination half-life (t1/2), the apparent clearance (CL/F), and the apparent volume of distribution associated with the terminal elimination phase, where F is bioavailability (Vz/F). The PD variables of interest in this study were the parasite reduction ratio (PRR) and parasite clearance half-life. These provide an estimate of the efficacy of an antimalarial treatment; with the former being the ratio of the parasite density decrease over a 48-h period (expressed as the log10 transformed cohort-specific PRR48 [log10 PRR48]). Noncompartmental PK analysis was performed using PKanalix (version 2019R1, Lixoft SAS, Abtony, France). The area under the concentration-time curve was determined using the linear log trapezoidal method in which linear calculation was used before maximum concentration (Cmax) and logarithmic formula for after Cmax. The slope of the terminal elimination phase (λz) was estimated via a linear regression between log concentrations and time. All parameters were summarized using geometric mean or median and range.

[2] = test system: P. falciparum blood-stage malaria parasites; details: monotherapy, cited from earlier work
[3] = oral, cohort 1 (n = 8), 200 mg artefenomel plus 100 mg DSM265, plasma, read-out: Cmax, range
[4] = oral, cohort 1 (n = 8), 200 mg artefenomel plus 100 mg DSM265, read-out: AUC0–last, geometric mean
[5] = oral, cohort 1 (n = 8), 200 mg artefenomel plus 100 mg DSM265, read-out: AUC0–last, range
[6] = oral, cohort 1 (n = 8), 200 mg artefenomel plus 100 mg DSM265, read-out: AUC0–∞, geometric mean
[7] = oral, cohort 1 (n = 8), 200 mg artefenomel plus 100 mg DSM265, read-out: AUC0–∞, range
[8] = oral, cohort 1 (n = 8), 200 mg artefenomel plus 100 mg DSM265, read-out: Vz/F (apparent volume of distribution, terminal phase), geometric mean
[9] = oral, cohort 1 (n = 8), 200 mg artefenomel plus 100 mg DSM265, read-out: Vz/F, range
[10] = oral, cohort 1 (n = 8), 200 mg artefenomel plus 100 mg DSM265, read-out: tmax, median
[11] = oral, cohort 1 (n = 8), 200 mg artefenomel plus 100 mg DSM265, read-out: tmax, range
[12] = oral, cohort 2 (n = 5), 200 mg artefenomel plus 50 mg DSM265, plasma, read-out: Cmax, range
[13] = oral, cohort 2 (n = 5), 200 mg artefenomel plus 50 mg DSM265, read-out: AUC0–last, geometric mean
[14] = oral, cohort 2 (n = 5), 200 mg artefenomel plus 50 mg DSM265, read-out: AUC0–last, range
[15] = oral, cohort 2 (n = 5), 200 mg artefenomel plus 50 mg DSM265, read-out: AUC0–∞, geometric mean
[16] = oral, cohort 2 (n = 5), 200 mg artefenomel plus 50 mg DSM265, read-out: AUC0–∞, range
[17] = oral, cohort 2 (n = 5), 200 mg artefenomel plus 50 mg DSM265, read-out: Vz/F (apparent volume of distribution, terminal phase), geometric mean
[18] = oral, cohort 2 (n = 5), 200 mg artefenomel plus 50 mg DSM265, read-out: Vz/F, range
[19] = oral, cohort 2 (n = 5), 200 mg artefenomel plus 50 mg DSM265, read-out: tmax, median
[20] = oral, cohort 2 (n = 5), 200 mg artefenomel plus 50 mg DSM265, read-out: tmax, range
[21] = po, cohort 1 (n = 8), single oral dose 200 mg artefenomel plus 100 mg DSM265, plasma, read-out: Cmax, geometric mean
[22] = po, cohort 2 (n = 5), single oral dose 200 mg artefenomel plus 50 mg DSM265, plasma, read-out: Cmax, geometric mean
[23] = cohort 1 (n = 8), 200 mg artefenomel plus 100 mg DSM265
[24] = cohort 2 (n = 5), 200 mg artefenomel plus 50 mg DSM265

| Cmax [1, 3] [ng/mL] | AUC(0-t) [1, 4] [µg·h/mL] | AUC(0-t) [1, 5] [µg·h/mL] | AUC(0-inf) [1, 6] [µg·h/mL] | AUC(0-inf) [1, 7] [µg·h/mL] | Vd/F [1, 8] [L] | Vd/F [1, 9] [L] | Tmax [1, 10] [h] | Tmax [1, 11] [h] | Cmax [1, 12] [ng/mL] | AUC(0-t) [1, 13] [µg·h/mL] | AUC(0-t) [1, 14] [µg·h/mL] | AUC(0-inf) [1, 15] [µg·h/mL] | AUC(0-inf) [1, 16] [µg·h/mL] | Vd/F [1, 17] [L] | Vd/F [1, 18] [L] | Tmax [1, 19] [h] | Tmax [1, 20] [h] | Cmax [1, 21] [ng/mL] | Cmax [1, 22] [ng/mL] | Compound | also measured |
| --- | --- | --- | --- | --- | --- | --- | --- | --- | --- | --- | --- | --- | --- | --- | --- | --- | --- | --- | --- | --- | --- |
| 150 to 597 | 3.01 | 1.11 to 4.96 | 3.08 | 1.11 to 5.09 | 8900 | 4810 to 16000 | 3 | 2 to 5 | 307 to 522 | 3.25 | 2.66 to 5.7 | 3.32 | 2.68 to 5.91 | 7990 | 4590 to 14300 | 5 | 1 to 6 | 372 | 412 | c1cc([C@H]2CC[C@]3(CC2)OO[C@]2(O3)C3CC4CC(C3)CC2C4)ccc1OCCN1CCOCC1 [Artefenomel] | recrudescence ([2]; single dose 200 mg): recrudescence occurred in all subjects; recrudescence, subjects ([2]; single dose 500 mg): 50% |
| 4150 to 6880 | 434 | 329 to 502 | 514 | 360 to 634 | 28 | 22 to 42 | 2 | 1 to 3 | 2150 to 4340 | 232 | 209 to 281 | 271 | 240 to 309 | 26 | 19 to 34 | 2 | 1 to 2 | 5440 | 3580 | Cc1cc(Nc2ccc(S(F)(F)(F)(F)F)cc2)n2nc(C(C)(F)F)nc2n1 [DSM265] | CL/F (apparent clearance), geometric mean [1, 23]: 0.19 L/h; CL/F, range [1, 23]: 0.16 to 0.28 L/h; CL/F (apparent clearance), geometric mean [1, 24]: 0.18 L/h; CL/F, range [1, 24]: 0.16 to 0.21 L/h; half-life ([1]; oral, cohort 1 (n = 8), 200 mg artefenomel plus 100 mg DSM265, read-out: t1/2 (elimination half-life), geometric mean (converted)): 100 h; half-life ([1]; oral, cohort 1 (n = 8), 200 mg artefenomel plus 100 mg DSM265, read-out: t1/2, range): 76 to 185 h; half-life ([1]; oral, cohort 2 (n = 5), 200 mg artefenomel plus 50 mg DSM265, read-out: t1/2 (elimination half-life), geometric mean (converted)): 97 h; half-life ([1]; oral, cohort 2 (n = 5), 200 mg artefenomel plus 50 mg DSM265, read-out: t1/2, range): 75 to 134 h; parasite clearance half-life ([2]; single dose 150 mg): 9.4 h; recrudescence ([2]; single dose 150 mg): recrudescence occurred in all subjects; parasite clearance half-life ([2]; single dose 400 mg): 5.2 h; recrudescence ([2]; single dose 400 mg): no recrudescence occurred |
